System: Proteasome
Assay: Inhibitory activity against 20S proteosome
Type: subcellular

CC[C@H](C)[C@H](NC(=O)[C@H]([C@@H](C)CC)N(C)C(C)=O)C(=O)N[C@H](C(=O)N[C@@H](CC(C)C)C(=O)[C@@]1(C)CO1)[C@@H](C)O
k obs / 1: 37200 M⁻¹ s⁻¹

CC[C@@H](C)[C@H](NC(=O)[C@H]([C@@H](C)CC)N(C)C(C)=O)C(=O)N[C@H](C(=O)N[C@@H](CC(C)C)C(=O)[C@@]1(C)CO1)[C@@H](C)O
k obs / 1: 246 M⁻¹ s⁻¹
